Like-named read-outs stand apart in the source and are kept apart here.
How the values were obtained:
[1] = tested on: HCV genotype 1a (H77 strain) replicon in HUH-7 cells; test: HCV replicon luciferase reporter assay, genotype 1a; assay type: cell-based; details: Hepatitis C virus, Huh-7, 72 h, HCV genotype 1a replicon luciferase, 3 days incubation, read-out: LE_1a (EC50, range)
Method in brief: (§1)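 Replicon inhibition for both genotypes was measured as Renilla luciferase signal (EnduRen, 7.5 μM final, 2 h) after 3-day, 37° C exposure of replicon-bearing HUH-7 cells in 4% FCS DMEM, 0.5% DMSO. The 1b construct carries S1179I; the 1a H77 construct carries P1496L and S2204I. Twenty-point, 3-fold dilutions were fitted four-parametrically for EC50, and CC50 was taken from multiplexed Cell Titer-Blue.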

[2] = tested on: HCV genotype 1b (Con1) replicon in HUH-7 cells; test: HCV replicon luciferase reporter assay, genotype 1b; assay type: cell-based; details: Hepatitis C virus, Huh-7, 72 h, HCV genotype 1b replicon luciferase, 3 days incubation, read-out: LE_1b (EC50, range)
Method in brief: as §1

Structure (SMILES) | EC50 [1] [nM] | EC50 [2] [nM] | EC50 ([1]; GETYPE1A) [nM] | EC50 ([2]; GETYPE1B) [nM]
COc1cc2nc(C(F)(F)F)c(OC)nc2cc1O[C@@H]1C[C@H]2C(=O)N[C@]3(C(=O)NS(=O)(=O)C4(C)CC4)C[C@H]3/C=C\CC[C@@H](C)C[C@@H](C)[C@H](NC(=O)OC(C)(C)C)C(=O)N2C1 [Compound 4351, tert-butyl ((2R,6S,7R,9R,13aS,14aR,16aS,Z)-2-((3,7-dimethoxy-2-(trifluoromethyl)quinoxalin-6-yl)oxy)-7,9-dimethyl-14a-(((1-methylcyclopropyl)sulfonyl)carbamoyl)-5,16-dioxo-1,2,3,5,6,7,8,9,10,11,13a,14,14a,15,16,16a-hexadecahydrocyclopropa[e]pyrrolo[1,2-a][1,4]diazacyclopentadecin-6-yl)carbamate] | 5.01 to 35 | 1.01 to 5 |  | 
COc1cc2nc(C(F)(F)F)c(OC)nc2cc1O[C@@H]1C[C@H]2C(=O)N[C@]3(C(=O)NS(=O)(=O)C4(C)CC4)C[C@H]3/C=C\CC[C@H](C)C[C@@H](C)[C@H](NC(=O)OC(C)(C)C)C(=O)N2C1 [Compound 4352, tert-butyl ((2R,6S,7R,9S,13aS,14aR,16aS,Z)-2-((3,7-dimethoxy-2-(trifluoromethyl)quinoxalin-6-yl)oxy)-7,9-dimethyl-14a-(((1-methylcyclopropyl)sulfonyl)carbamoyl)-5,16-dioxo-1,2,3,5,6,7,8,9,10,11,13a,14,14a,15,16,16a-hexadecahydrocyclopropa[e]pyrrolo[1,2-a][1,4]diazacyclopentadecin-6-yl)carbamate] | 35 to 620 | 35 to 620 |  | 
COc1cc2nc(C(F)(F)F)c(OC)nc2cc1O[C@@H]1C[C@H]2C(=O)N[C@]3(C(=O)NS(=O)(=O)C4(C)CC4)C[C@H]3/C=C\CC[C@@H](C)C[C@@H](C)[C@H](NC(=O)OC(C)(C)C(F)(F)F)C(=O)N2C1 [Compound 4353] |  |  | 5.01 to 35 | 1.01 to 5
COc1cc2nc(C(F)(F)F)c(OC)nc2cc1O[C@@H]1C[C@H]2C(=O)N[C@]3(C(=O)NS(=O)(=O)C4(C)CC4)C[C@H]3/C=C\CC[C@H](C)C[C@@H](C)[C@H](NC(=O)OC(C)(C)C(F)(F)F)C(=O)N2C1 [Compound 4354] |  |  | 35 to 620 | 35 to 620
CC[C@@H]1C[C@H](C)CC/C=C\[C@@H]2C[C@@]2(C(=O)NS(=O)(=O)C2(C)CC2)NC(=O)[C@@H]2C[C@@H](Oc3ncc(OC)c4ccc(F)cc34)CN2C(=O)[C@H]1NC(=O)c1ccn(C)n1 [Compound 4356, (2R,6S,7R,9R,13aS,14aR,16aS,Z)-7-ethyl-2-((7-fluoro-4-methoxyisoquinolin-1-yl)oxy)-9-methyl-6-(1-methyl-1H-pyrazole-3-carboxamido)-N-((1-methylcyclopropyl)sulfonyl)-5,16-dioxo-1,2,3,5,6,7,8,9,10,11,13a,14,14a,15,16,16a-hexadecahydrocyclopropa[e]pyrrolo[1,2-a][1,4]diazacyclopentadecine-14a-carboxamide] | 0.51 to 1 | 0.1 to 0.5 |  | 
CC[C@@H]1C[C@H](C)CC/C=C\[C@@H]2C[C@@]2(C(=O)NS(=O)(=O)C2(C)CC2)NC(=O)[C@@H]2C[C@@H](Oc3ncc(OC)c4ccc(F)cc34)CN2C(=O)[C@H]1NC(=O)O[C@H](C)C(F)(F)F [Compound 4357, (R)-1,1,1-trifluoropropan-2-yl ((2R,6S,7R,9R,13aS,14aR,16aS,Z)-7-ethyl-2-((7-fluoro-4-methoxyisoquinolin-1-yl)oxy)-9-methyl-14a-(((1-methylcyclopropyl)sulfonyl)carbamoyl)-5,16-dioxo-1,2,3,5,6,7,8,9,10,11,13a,14,14a,15,16,16a-hexadecahydrocyclopropa[e]pyrrolo[1,2-a][1,4]diazacyclopentadecin-6-yl)carbamate] | 1.01 to 5 | 0.51 to 1 |  | 
